Where two headings read alike, the source gives them in different places. Each block holds one molecule with its values, some of them ahead of it.
Target: T1, Recombinant human cathepsin A (Homo sapiens, UniProt P10619)
T1 construct: Recombinant human cathepsin A (residues 29-480, with a C-terminal 10-His tag); 10-His (C); purchased R&D Systems 1049-SE
T1 sequence (P10619 29-312 limits assumed): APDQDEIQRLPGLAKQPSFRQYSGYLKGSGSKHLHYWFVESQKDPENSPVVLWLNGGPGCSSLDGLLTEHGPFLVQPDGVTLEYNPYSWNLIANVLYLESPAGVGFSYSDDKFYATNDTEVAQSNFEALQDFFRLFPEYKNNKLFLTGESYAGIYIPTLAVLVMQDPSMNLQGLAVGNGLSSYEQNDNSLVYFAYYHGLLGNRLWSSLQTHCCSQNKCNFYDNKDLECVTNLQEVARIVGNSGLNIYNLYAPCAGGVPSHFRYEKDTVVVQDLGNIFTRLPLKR
T1 sequence (P10619 327-480 limits assumed): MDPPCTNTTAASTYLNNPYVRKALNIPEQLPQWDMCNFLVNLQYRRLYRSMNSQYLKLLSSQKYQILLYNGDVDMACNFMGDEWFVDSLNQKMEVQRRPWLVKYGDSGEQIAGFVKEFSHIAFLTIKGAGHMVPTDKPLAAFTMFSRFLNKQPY
Assay: Cathepsin A inhibitory activity
Assay type: biochemical
Procedure, shortened: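 Human cathepsin A (res. 29-480, C-His10) pre-activated with cathepsin L (MES pH 6.0, DTT, 15 min, 37 °C; quenched with 10 μM E-64). Enzyme (833 ng/ml) preincubated 15 min RT with compound in MES pH 5.5/DTT, then 2 μM Bodipy FL-bradykinin for 15 min RT. Capillary electrophoresis product/substrate peak areas; IC50 from % inhibition.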

[1] = read-out: Activity (2): Cathepsin A inhibitory activity, IC50 class
[2] = recombinant human cathepsin A, read-out: Activity (2): Cathepsin A inhibitory activity, IC50 class
[3] = pharmacological test "Cathepsin A inhibitory activity", IC50 given as class A/B/C, read-out: Activity (2): Cathepsin A inhibitory activity, IC50 class
[4] = read-out: Activity (2): Cathepsin A inhibitory activity (IC50 class)
[5] = recombinant human cathepsin A 833 ng/ml, Bodipy FL-labeled bradykinin 2 μM, pH 5.5, read-out: CATH-A IC50

IC50 [1]: 1000 to 30000 nM
SMILES: O=C(O)CC(NC(=O)c1cc(O)n(-c2ccc(Cl)cc2)n1)c1ccc(F)cc1 (stereo not shown) [Example 73, 3-{[1-(4-Chloro-phenyl)-5-hydroxy-1H-pyrazole-3-carbonyl]-amino}-3-(4-fluoro-phenyl)-propionic acid]

IC50 [2]: < 100 nM
SMILES: COc1cc(C(=O)N[C@@H](CC(=O)NC[C@@H]2CCCO2)c2ccccc2C)nn1-c1ccccc1F [Example 938, 1-(2-Fluoro-phenyl)-5-methoxy-1H-pyrazole-3-carboxylic acid ((S)-2-{[(S)-1-(tetrahydro-furan-2-yl)methyl]-carbamoyl}-1-o-tolyl-ethyl)-amide]

IC50 [2]: < 100 nM
SMILES: Cc1ccccc1[C@H](CC(=O)O)NC(=O)c1cc(O)n(-c2ccccc2C)n1 [Example 532]

IC50 [3]: 100 to 1000 nM
SMILES: COc1ccc(C(CC(=O)O)NC(=O)c2cc(O)n(-c3ccccc3Cl)n2)c(OC)c1 (stereo not shown) [Example 207]

IC50 [4]: < 100 nM
SMILES: CCOc1cc(C(=O)NC(CC(=O)O)c2ccc(C)cc2C)nn1-c1ccccc1F (stereo not shown) [Example 708]

IC50 [3]: 100 to 1000 nM
SMILES: COc1cccc([C@H](CC(=O)O)NC(=O)c2cc(O)n(-c3ccc(F)cc3F)n2)c1OC [Example 189]

IC50 [4]: < 100 nM
SMILES: CCOc1cc(C(=O)N[C@@H](CC(=O)O)c2cccc(C)c2)nn1-c1ccccc1F [Example 712]

SMILES: CC(C)(C)[C@](C)(O)COc1cc(C(=O)N[C@@H](CC(=O)O)c2ccccc2F)nn1-c1ccccc1F [Example 883, (S)-3-(2-Fluoro-phenyl)-3-{[1-(2-fluoro-phenyl)-5-((S)-2-hydroxy-2,3,3-trimethyl-butoxy)-1H-pyrazole-3-carbonyl]-amino}-propionic acid]
IC50 [1]: < 100 nM

IC50 [1]: 1000 to 30000 nM
SMILES: Cc1ccc(C)c(-n2nc(C(=O)NC(CC(=O)O)c3ccc(Cl)cc3)cc2O)c1 (stereo not shown) [Example 45]

IC50 [4]: < 100 nM
SMILES: COc1cccc(COc2cc(C(=O)N[C@@H](CC(=O)O)c3ccccc3C)nn2-c2ccccc2F)c1 [Example 655]

IC50 [1]: 100 to 1000 nM
SMILES: O=C(O)CC(NC(=O)c1cc(O)n(-c2ccc(F)cc2)n1)c1cccc2c1OCO2 (stereo not shown) [Example 336]

IC50 [5]: 223 nM
IC50 [2]: 100 to 1000 nM
SMILES: O=C(O)CC(NC(=O)c1cc(O)n(-c2ccccc2Cl)n1)c1cc(F)ccc1Cl (stereo not shown) [Example 458, 3-(2-Chloro-5-fluoro-phenyl)-3-{[1-(2-chloro-phenyl)-5-hydroxy-1H-pyrazole-3-carbonyl]-amino}-propionic acid]

IC50 [3]: < 100 nM
SMILES: O=C(O)C[C@H](NC(=O)c1cc(O)n(-c2ccc(F)cc2F)n1)c1cccc(Cl)c1Cl [Example 181]

IC50 [1]: 1000 to 30000 nM
SMILES: Cc1ccc(C)c(C(CC(=O)O)NC(=O)c2cc(O)n(-c3ccc(F)cc3)n2)c1 (stereo not shown) [Example 359]

IC50 [4]: < 100 nM
SMILES: CC(C)(O)COc1cc(C(=O)N[C@@H](CC(=O)O)c2ccc(Cl)cc2Cl)nn1-c1ccccc1F [Example 751, (S)-3-(2,4-Dichloro-phenyl)-3-{[1-(2-fluoro-phenyl)-5-(2-hydroxy-2-methyl-propoxy)-1H-pyrazole-3-carbonyl]-amino}-propionic acid]

IC50 [4]: < 100 nM
SMILES: Cc1ccc([C@H](CC(=O)O)NC(=O)c2cc(OCC3CC3)n(-c3ccccc3F)n2)cc1 [Example 695]

SMILES: Cc1ccc([C@H](CC(=O)O)NC(=O)c2cc(OCC(=O)C(C)(C)C)n(-c3ccccc3F)n2)cc1 [Example 791, (S)-3-{[5-(3,3-Dimethyl-2-oxo-butoxy)-1-(2-fluoro-phenyl)-1H-pyrazole-3-carbonyl]-amino}-3-p-tolyl-propionic acid]
IC50 [4]: < 100 nM

IC50 [4]: 1000 to 30000 nM
SMILES: O=C(O)CC(NC(=O)c1cc(O)n(-c2ccccc2Cl)n1)c1ccc(-c2ccc(C(F)(F)F)cc2)cc1 (stereo not shown) [Example 581]

IC50 [4]: 100 to 1000 nM
SMILES: O=C(O)CC(NC(=O)c1cc(O)n(-c2ccccc2Cl)n1)c1ccc(-c2ccccc2Cl)cc1 (stereo not shown) [Example 591]

SMILES: CC(C)(C)[C@](C)(O)COc1cc(C(=O)N[C@@H](CC(=O)O)c2ccccc2Cl)nn1-c1ccccc1F [Example 789, (S)-3-(2-Chloro-phenyl)-3-{[1-(2-fluoro-phenyl)-5-((S)-2-hydroxy-2,3,3-trimethyl-butoxy)-1H-pyrazole-3-carbonyl]-amino}-propionic acid]
IC50 [4]: < 100 nM

SMILES: CC(C)[C@@](C)(O)COc1cc(C(=O)N[C@@H](CC(=O)O)c2ccc(Cl)cc2Cl)nn1-c1ccccc1F [Example 816, (S)-3-(2,4-Dichloro-phenyl)-3-{[1-(2-fluoro-phenyl)-5-((R)-2-hydroxy-2,3-dimethyl-butoxy)-1H-pyrazole-3-carbonyl]-amino}-propionic acid]
IC50 [1]: < 100 nM

IC50 [5]: 11100 nM
IC50 [2]: 1000 to 30000 nM
SMILES: CN(C)c1ccc(C(CC(=O)O)NC(=O)c2cc(O)n(-c3cccc(Cl)c3)n2)c(Cl)c1 (stereo not shown) [Example 463, 3-(2-Chloro-4-dimethylamino-phenyl)-3-{[1-(3-chloro-phenyl)-5-hydroxy-1H-pyrazole-3-carbonyl]-amino}-propionic acid]

IC50 [2]: 100 to 1000 nM
SMILES: O=C(O)CC(NC(=O)c1cc(O)n(-c2cccc(Cl)c2)n1)c1cccc(Cl)c1 (stereo not shown) [Example 408]

IC50 [4]: 100 to 1000 nM
IC50 [5]: 323 nM
SMILES: COc1ccc(C(CC(=O)O)NC(=O)c2cc(O)n(-c3ccccc3F)n2)c(C(F)(F)F)c1 (stereo not shown) [Example 552, 3-{[1-(2-Fluoro-phenyl)-5-hydroxy-1H-pyrazole-3-carbonyl]-amino}-3-(4-methoxy-2-trifluoromethyl-phenyl)-propionic acid]

IC50 [1]: 100 to 1000 nM
SMILES: O=C(O)CC(NC(=O)c1cc(O)n(-c2cccc(F)c2)n1)c1ccc(OC(F)(F)F)cc1 (stereo not shown) [Example 315]

IC50 [1]: 100 to 1000 nM
SMILES: COc1ccccc1[C@H](CC(=O)O)NC(=O)c1cc(O)n(-c2ccccc2Cl)n1 [Example 111]

IC50 [1]: 100 to 1000 nM
SMILES: COc1ccc(-n2nc(C(=O)N[C@@H](CC(=O)O)c3ccccc3C)cc2O)cc1 [Example 87]

IC50 [1]: 100 to 1000 nM
SMILES: O=C(O)CC(NC(=O)c1cc(O)n(-c2ccc(F)cc2)n1)c1cccc(C(F)(F)F)c1F (stereo not shown) [Example 360]

IC50 [1]: 100 to 1000 nM
SMILES: O=C(O)C[C@H](NC(=O)c1cc(O)n(-c2ccc(F)cc2)n1)c1ccccc1Br [Example 339]

IC50 [1]: 1000 to 30000 nM
SMILES: Cc1cc(C)cc(-n2nc(C(=O)NC(CC(=O)O)c3ccccc3C)cc2O)c1 (stereo not shown) [Example 78]

IC50 [2]: 100 to 1000 nM
SMILES: COc1ccc(C(CC(=O)O)NC(=O)c2cc(O)n(-c3ccc(Cl)cc3)n2)c(Cl)c1 (stereo not shown) [Example 424]

IC50 [2]: < 100 nM
SMILES: COc1cc(C(=O)N[C@@H](CC(=O)NCC(C)(C)C)c2ccccc2C)nn1-c1ccccc1F [Example 924, 1-(2-Fluoro-phenyl)-5-methoxy-1H-pyrazole-3-carboxylic acid [(S)-2-(2,2-dimethyl-propylcarbamoyl)-1-o-tolyl-ethyl]-amide]

IC50 [2]: 1000 to 30000 nM
SMILES: COc1cc(C(=O)N[C@@H](CC(=O)NCC(C)C)c2ccccc2C)nn1-c1ccccc1F [Example 919, 1-(2-Fluoro-phenyl)-5-methoxy-1H-pyrazole-3-carboxylic acid ((S)-2-isobutylcarbamoyl-1-o-tolyl-ethyl)-amide]

SMILES: CC(C)[C@@](C)(O)COc1cc(C(=O)N[C@@H](CC(=O)O)c2ccccc2F)nn1-c1ccccc1F [Example 862, (S)-3-(2-Fluoro-phenyl)-3-{[1-(2-fluoro-phenyl)-5-((R)-2-hydroxy-2,3-dimethyl-butoxy)-1H-pyrazole-3-carbonyl]-amino}-propionic acid]
IC50 [1]: 100 to 1000 nM

IC50 [1]: 100 to 1000 nM
SMILES: O=C(O)CC(NC(=O)c1cc(O)n(-c2cccc(F)c2)n1)c1ccccc1F (stereo not shown) [Example 308]

SMILES: CC(C)(C)C(O)COc1cc(C(=O)N[C@H](CC(=O)O)c2ccc(Cl)cc2)nn1-c1ccccc1F (stereo partly drawn) [Example 815, (R)-3-(4-Chloro-phenyl)-3-{[1-(2-fluoro-phenyl)-5-(2-hydroxy-3,3-dimethyl-butoxy)-1H-pyrazole-3-carbonyl]-amino}-propionic acid]
IC50 [1]: < 100 nM

IC50 [5]: 147 nM
IC50 [2]: 100 to 1000 nM
SMILES: O=C(O)CC(NC(=O)c1cc(O)n(-c2ccccc2)n1)c1ccc(-c2ccccn2)cc1 (stereo not shown) [Example 499, 3-[(5-Hydroxy-1-phenyl-1H-pyrazole-3-carbonyl)-amino]-3-(4-pyridin-2-yl-phenyl)-propionic acid; compound with trifluoro-acetic acid]

IC50 [4]: < 100 nM
SMILES: Cc1ccccc1[C@H](CC(=O)O)NC(=O)c1cc(OCC(=O)N2CCCC2)n(-c2ccccc2F)n1 [Example 616]

IC50 [1]: 1000 to 30000 nM
SMILES: Cc1ccc(C)c(-n2nc(C(=O)NC(CC(=O)O)CC(C)C)cc2O)c1 (stereo not shown) [Example 38]

IC50 [5]: 249 nM
IC50 [2]: 100 to 1000 nM
SMILES: COc1ccc(F)cc1C(CC(=O)O)NC(=O)c1cc(O)n(-c2ccc(F)cc2F)n1 (stereo not shown) [Example 453, 3-{[1-(2,4-Difluoro-phenyl)-5-hydroxy-1H-pyrazole-3-carbonyl]-amino}-3-(5-fluoro-2-methoxy-phenyl)-propionic acid]

IC50 [1]: 1000 to 30000 nM
SMILES: O=C(O)CC(NC(=O)c1cc(O)n(-c2ccccc2)n1)c1cc(F)cc(F)c1 (stereo not shown) [Example 70]

IC50 [4]: < 100 nM
IC50 [5]: 14.7 nM
SMILES: Cc1ccccc1[C@H](CC(=O)O)NC(=O)c1cc(OC[C@](C)(O)C(C)(C)C)n(-c2ccccc2F)n1 (single isomer, unassigned) [Example 747]

IC50 [1]: 100 to 1000 nM
SMILES: COc1cccc([C@H](CC(=O)O)NC(=O)c2cc(O)n(-c3ccc(F)cc3)n2)c1OC [Example 353]

Source: patent US8664257B2, “Oxygen-substituted 3-heteroaroylamino-propionic acid derivatives and their use as pharmaceuticals” (Sanofi, priority 2010, dated 2014)
